Among the data in PubChem BioAssay (NCI) are GI50 and TGI values, retold here.

Holding throughout (assay): NCI tumour cell line growth inhibition, 48 h
Test [1] relates to MDA-MB-435.
For test [2], the system named is MALME-3M melanoma.
Test [3] has as its system SNB-19 CNS.
Test [4] concerns HT29 colon.
Test [5] relates to NCI-H23 lung.
Test [6] concerns DU-145 prostate.
Test [7] concerns PC-3 prostate.
The subject of test [8] is UACC-257 melanoma.
The test system of test [9] is NCI-H522 lung.
The subject of test [10] is SK-OV-3 ovarian.

The structures appear in SMILES notation.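 In this assay, cells in 96-well plates receive the compound at five concentrations for 48 hours. Endpoints are linearly interpolated between the surrounding concentrations. The concentration for 50% growth inhibition is given as GI50. TGI denotes the concentration required for complete inhibition of growth.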

As for `O=C(Nc1ccc(Cl)cc1)c1cc2ccccc2cc1O`, the GI50 in [1] was 3.84 µM; in test [2] it was 1.67 µM; in [3], 4.19 µM; in test [4], 4.09 µM; in test [5] it was 2 µM; in test [6], 3.18 µM. In addition, the GI50 in test [7] was 2.99 µM; in test [8], 3.25 µM; in test [9] it was 1.25 µM; in test [10], 1.91 µM. For the same compound, the TGI in test [1] is greater than 100 µM; in [2], 95.6 µM; in test [3], greater than 100 µM; in [4] it was greater than 100 µM; in test [5], greater than 100 µM; in test [6], greater than 100 µM. Further, the TGI is greater than 100 µM in [7], 7.91 µM in test [8], 6.88 µM in test [9] and 9.61 µM in [10].
As to `CCN(CC)CCOc1ccc(/C=C2\CC3C4CC=C5C[C@@H](N6CCCC6)CC[C@]5(C)C4CC[C@]3(C)[C@H]2O)cc1OC` (stereo not given in full), the GI50 was 3.86 µM in [1]; 3.68 µM in [2]; 6.2 µM in test [3]; 2.39 µM in test [4]; 8.87 µM in test [5]; 4.62 µM in test [6]. Besides, the GI50 in [7] is 4.66 µM; in [8] it was 6.82 µM; in test [9], 9.06 µM; in [10] it was 27.2 µM. In addition, the TGI in test [1] was 14.5 µM; in test [2], 9.82 µM; in test [3] it was greater than 63.5 µM; in test [4] it was greater than 100 µM; in test [5] it was 25.1 µM; in test [6], 34.7 µM. Also, the TGI in [7] was 45.3 µM; in test [8], 14.9 µM; in test [9], greater than 30.2 µM; in test [10], greater than 70.8 µM.
Take `N=C(N)CCCCCCCCC(=N)N`: the GI50 in test [1] is greater than 100 µM; in test [2], 39.9 µM; in [3] it was 22.5 µM; in [4], 26.3 µM; in [5] it was 5.11 µM; in test [6], 20.8 µM. Also, the GI50 in [7] is 37 µM; in test [8] it was greater than 100 µM; in test [9], 41.4 µM; in test [10], 22.1 µM. For the same compound, the TGI in test [1] was greater than 100 µM; in test [2], greater than 100 µM; in test [3] it was greater than 100 µM; in test [4], greater than 100 µM; in test [5] it was 70.4 µM; in test [6], greater than 100 µM. The TGI in test [7], in test [8], in test [9] and in test [10] was greater than 100 µM throughout.
Consider `Cc1nc2cccc(NCc3ccc(C(=O)NO)cc3)c2c(=O)n1-c1ccccc1`, for which the GI50 in test [1] is 1.63 µM; in test [2] it was 1.48 µM; in [3], 1.92 µM; in test [4] it was 2.81 µM; in test [5], 1.63 µM; in test [6] it was 2.7 µM. Moreover, the GI50 was 1.9 µM in test [7], 2.11 µM in test [8], 1.29 µM in [9] and 2.71 µM in test [10]. Also, the TGI in [1] was determined as 3.28 µM; in test [2] it was 3.26 µM; in test [3], 4.56 µM; in test [4], 11.6 µM; in [5], 3.18 µM; in [6], 11.9 µM. Besides, the TGI in test [7] came out at 6.14 µM; in test [8] it was 4.98 µM; in [9], 2.61 µM; in test [10], 8.28 µM.
In the case of `Cc1cc2c(F)c(Oc3ncnn4cc(OC[C@@H](C)OC(=O)[C@H](C)N)c(C)c34)ccc2[nH]1`, the GI50 was 11.3 µM in [1]; 11.7 µM in [2]; 9.99 µM in [3]; 5.73 µM in test [4]; 11.8 µM in test [5]; 11.7 µM in [6]. In addition, the GI50 in test [7] is 5.28 µM; in test [8], 14.6 µM; in test [9] it was 11.1 µM; in test [10], 12.4 µM. Also, the TGI in test [1] came out at 23.8 µM; in [2], 24.9 µM; in [3] it was 23 µM; in test [4], 18.9 µM; in test [5], 25.9 µM; in test [6], 24.2 µM. Moreover, the TGI came to 23.9 µM in test [7], 28.1 µM in test [8], 24.7 µM in [9] and 26.7 µM in test [10].
Take `CC1(C)N=C(N)N=C(N)N1c1cc(Cl)ccc1Cl`: the GI50 in [1] is greater than 100 µM; in test [2], 59.1 µM; in test [3], greater than 100 µM; in [4] it was 62.5 µM; in test [5] it was greater than 100 µM; in test [6], 28.3 µM. Besides, the GI50 in [7] is greater than 100 µM; in test [8] it was greater than 100 µM; in [9] it was 46 µM; in [10] it was greater than 100 µM. The TGI in [1], in test [2], in test [3], in [4], in [5] and in test [6] was greater than 100 µM throughout. Besides, the TGI in [7], in [8], in test [9] and in test [10] was greater than 100 µM each time.
